# Experiments:
# Assay in all cases: Ames mutagenicity test (back mutation)
# Assay type in all cases: cell-based
# Set-up in all cases: key: -: no back mutation; (+): slight back mutuation; +: increasing back mutation; ++: increasing back mutation
# [1] = tested on: Salmonella thyphimurium strain TA 100
# Description: (§1) Salmonella thyphimurium strains
# (§2) without (-) and with (+) S9 - Mix
# [2] = tested on: Salmonella thyphimurium strain TA 97
# Description: as §1, §2
# [3] = tested on: Salmonella thyphimurium strain TA 98
# Description: as §1, §2
Compound,"Ames test result, TA 100 ([1]; with (+) S9-Mix)","Ames test result, TA 100 ([1]; without (-) S9-Mix)","Ames test result, TA 97 ([2]; with (+) S9-Mix)","Ames test result, TA 97 ([2]; without (-) S9-Mix)","Ames test result, TA 98 ([3]; with (+) S9-Mix)","Ames test result, TA 98 ([3]; without (-) S9-Mix)"
"CCOc1ccc(N)cc1N [2,4-diaminophenetol]",-,-,+,-,++,-
"COc1ccc(N)cc1N [2,4-diaminoanisol]",(+),-,+,-,++,-
"Cc1cc(OC(F)(F)C(F)F)c(N)cc1N [2,4-diamino-5-tetrafluoroethoxy-toluene, 2,4-diamino-5-tetrafluoroethoxytoluene]",-,-,-,-,-,-
"Nc1ccc(OC(F)(F)C(F)F)c(N)c1 [2,4-diaminotetrafluoroethoxybenzene]",-,-,(+),-,+,-
"2,4-diaminotrifluoroethoxybenzene",(+),-,-,-,++,-

# From patent US4845294A, “Diaminotetrafluoroethoxybenzenes” (Wella Aktiengesellschaft, priority 1984, dated 1989)
